Measurements reported in BindingDB's records for doi:10.1074/jbc.M209367200 (University of Padova, 2003).
pKi: −log10 of the molar value.

Biological target: Casein kinase II subunit alpha (Zea mays, UniProt P28523)
Experiment: Kinase Inhibition Assay
Settings: pH 7.5; 22 °C
Procedure: In vitro kinase assay using purified enzyme, was incubated at room temperature with substrate, and test compounds in the presence of 100 uM ATP/ [gamma-33P] ATP. 33P incorporation was measured with scintillation counter. IC50 values were calculated from dose-response curves; from these calculated apparent inhibition constants (Ki) were obtained using the Cheng-Prusoff equation: Ki = IC50/ (1 + ([ATP]/Km)).

Chain of Casein kinase II subunit alpha (P28523 whole entry): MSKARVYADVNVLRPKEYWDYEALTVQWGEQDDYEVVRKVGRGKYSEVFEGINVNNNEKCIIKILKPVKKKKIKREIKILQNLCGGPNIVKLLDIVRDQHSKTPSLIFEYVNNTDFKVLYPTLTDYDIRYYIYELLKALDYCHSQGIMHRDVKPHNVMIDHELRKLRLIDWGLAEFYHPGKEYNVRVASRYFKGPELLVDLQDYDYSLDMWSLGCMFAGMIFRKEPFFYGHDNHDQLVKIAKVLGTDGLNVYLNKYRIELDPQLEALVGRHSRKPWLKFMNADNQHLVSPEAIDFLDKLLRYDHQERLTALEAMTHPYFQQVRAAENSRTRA

SMILES	pKi
O=C1c2cccc(O)c2C(=O)c2c(O)cccc21 [1,8-dihydroxy-anthraquinone]	< 4.40
O=c1c2c(O)cccc2oc2cccc(O)c12 [1,8-dihydroxy-9H-xanthen-9-one]	< 4.40
